Measured values reported in patent US5552382A (priority 1994, dated 1996).
In brackets after ≈: the same amount, converted by molar mass.

Columns and labels:
[1] = 30 minutes in an autoclave; cited from earlier work
IIIB strain of HIV = test: microbe, parasite or virus in culture; type: cell-based
Procedure: The following test procedure was employed.
In a classical virology assay aimed at testing the antiviral activity of a drug, the virus is added in the presence of a drug to target cells for the determined period of inoculation time, e.g., 1 hour, and then nonadsorbed virus is washed away and inoculated cells are exposed again to a fresh drug. After several days, a period corresponding to the replication cycle of the virus, the dose-effect of the drug is tested by measuring the quantity of newly-synthesized virus in the culture supernates of inoculated cells. But this strategy is not truly representative of the in vivo situation. It is clear that in a real-life situation the virus is not "flushed" from a human body prior to drug administration. […] In the present assay, virus, drug and cells were left without washing in the culture until tested for virus production 3 days later. This period of time presents one full cycle of HIV replication, Dimitrov et al., J. Virol. 67:2182-90, 1993. It is believed that this type of approach represents more closely and simulates the situation which exists in vivo.
p24 ELISA. Reduction of productive infection was evaluated by a commercial ELISA kit for viral core gag p24 product according to the manufacturer's instructions (Coulter, Hialeah, Fla.) as follows. Detergent-lysed samples of viral culture medium that were incubated in wells (96-well format), precoated with anti-p24 antibody, were screened for gag antigen by adding biotin-labeled anti-p24 antibody followed by streptavidin-peroxidase conjugate. The amount of captured p24 was measured by comparing the optical density (450 nm) of peroxidase substrate with supplied standards containing known amounts of p24. The lower limit of reliable sensitivity of this kit is 7.8 pg/ml.

MT-4 lymphocytes = conditions: MT-4 cells, 3 days continuous exposure; approximate log10 concentration
HIV = conditions: cited from earlier work; for Dose protecting against / abrogating HIV infection in vitro: literature figures, equivalent of the % or μM value
[2] = MT-4 cells, HIV IIIB, 3 days, p24 ELISA, approximate log10 concentration

| Compound | Retention of biological activity after autoclaving [1] | IC50 (IIIB strain of HIV; Human immunodeficiency virus 1, MT4, 72 h, MT-4 cells, HIV IIIB, 3 days, p24 ELISA, approximate log10 concentration, read-out: IC50 (50% inhibition of HIV infection)) | Dose giving complete protection against HIV infection (IIIB strain of HIV; MT-4 cells, HIV IIIB) | IC100 (100% inhibition of HIV infection) (IIIB strain of HIV; [2]) | CC100 (cytotoxicity) (MT-4 lymphocytes) | Dose protecting against / abrogating HIV infection in vitro (HIV) | Concentration reported to abrogate HIV infection (HIV; literature in vitro studies) | Cytopathic effect (membrane ballooning, syncytia) (IIIB strain of HIV; wells where viral replication was completely inhibited) | IC50 (50% inhibition of HIV infection) (IIIB strain of HIV; [2]) | Dose at which the protective effect was generally observed in vitro (HIV; literature review of in vitro investigations) |
| --- | --- | --- | --- | --- | --- | --- | --- | --- | --- | --- |
| gramicidin S | retains its biological activity | – | – | – | – | – | – | – | – | – |
| Cc1cc2c(C(C)C)c(O)c(O)c(C=O)c2c(O)c1-c1c(C)cc2c(C(C)C)c(O)c(O)c(C=O)c2c1O [Gossypol, gossypol] | – | ~1 µg/mL (≈ 1.93 µM) | 10 µg/mL | ~10 µg | ~10 µg | 50 µg/mL | 100 µM | – | – | – |
| gramicidin | – | – | – | ~0.01 µg | – | – | – | No signs of cytophatic effect were observed | – | – |
| nonoxynol-9 | – | – | 10 µg/mL | ~10 µg | ~10 µg | 50 µg/mL | – | – | ~10 ng | 0.05% |
